This is an account of results in patent US20240199546A1, “INHIBITORS OF SOLUTE CARRIER FAMILY 6A MEMBER 19 (SLC6A19) AND METHODS OF USE THEREOF” (Maze Therapeutics, Inc., priority 2022, published 2024).

Assay [1] concerns the target T1, human SLC6A19 and TMEM27 (Homo sapiens, UniProt Q695T7).
T1 construct: expressed in transfected cells
T1 sequence (Q695T7 1-634): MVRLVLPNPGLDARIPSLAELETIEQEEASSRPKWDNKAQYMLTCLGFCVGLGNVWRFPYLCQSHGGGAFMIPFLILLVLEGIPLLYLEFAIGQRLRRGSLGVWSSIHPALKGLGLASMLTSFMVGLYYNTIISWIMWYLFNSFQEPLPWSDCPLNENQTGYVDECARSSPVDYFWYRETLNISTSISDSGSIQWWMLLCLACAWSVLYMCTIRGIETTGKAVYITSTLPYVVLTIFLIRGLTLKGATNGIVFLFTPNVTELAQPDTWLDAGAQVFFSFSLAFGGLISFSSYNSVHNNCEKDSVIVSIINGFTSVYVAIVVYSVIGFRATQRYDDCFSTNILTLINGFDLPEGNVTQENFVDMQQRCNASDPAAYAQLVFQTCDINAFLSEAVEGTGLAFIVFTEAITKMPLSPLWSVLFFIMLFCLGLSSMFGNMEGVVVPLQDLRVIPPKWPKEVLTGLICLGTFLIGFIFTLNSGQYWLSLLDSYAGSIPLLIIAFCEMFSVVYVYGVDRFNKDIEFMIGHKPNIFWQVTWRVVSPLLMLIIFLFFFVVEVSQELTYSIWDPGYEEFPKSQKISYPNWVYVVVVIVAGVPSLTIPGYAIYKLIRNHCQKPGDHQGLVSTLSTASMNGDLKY
T1 sequence (Q9HBJ8 15-222 partner): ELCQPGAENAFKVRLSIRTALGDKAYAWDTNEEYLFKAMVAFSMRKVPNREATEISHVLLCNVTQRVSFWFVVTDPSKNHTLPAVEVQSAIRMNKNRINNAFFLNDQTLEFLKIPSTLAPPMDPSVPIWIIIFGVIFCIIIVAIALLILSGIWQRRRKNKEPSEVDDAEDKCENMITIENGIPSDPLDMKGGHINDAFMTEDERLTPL
Briefly: Radiolabelled (3H) leucine uptake in CHO cells with doxycycline-inducible expression of human SLC6A19 and TMEM27 (Example B-1). Format: cell-based. The following applies: CHO cells with doxycycline-inducible expression of human SLC6A19 and TMEM27, read-out: SLC6A19_Radioligand Uptake Assay IC50. The method in brief: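 CHO cells were induced with doxycycline for 18 h at 37 °C, washed in HBSS, then exposed to compounds for 1 h: 8-point, 3-fold dilutions in duplicate, 0.5% DMSO final. Uptake measured by scintillation counting after 2 h shaking. Activity normalized with positive control as 0% and DMSO as 100%.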

In assay [2] the target is T1, human SLC6A19 and TMEM27. Briefly: 13C6,15N-isoleucine uptake in CHO cells with doxycycline-inducible expression of human SLC6A19 and TMEM27, RapidFire mass spectrometry (Example B-2). It counts as cell-based. The note with it: read-out: SLC6A19_RapidFire Uptake Assay IC50. The method in brief:
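CHO cells induced overnight with doxycycline to express human SLC6A19 plus TMEM27; 20 min preincubation with compound (10-point 2-fold series, duplicate) at 37 °C in HEPES buffer pH 7.2, then 20 min with 13C6,15N-isoleucine. Intracellular label quantified by RapidFire MS against 13C-leucine standard; positive control defined 100% inhibition.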

Each structure is given as a SMILES string.

In general, IC50 refers to the concentration needed to halve the response being measured. For `CC(=O)NCc1cc2cc(F)c(OCc3cccc(F)n3)cc2[nH]1` [Compound 226, N-((5-fluoro-6-((6-fluoropyridin-2-yl)methoxy)-1H-indol-2-yl)methyl)acetamide], the IC50 turned out to be 1120 nM on human SLC6A19 and TMEM27 [1]; 960 nM on human SLC6A19 and TMEM27 [2].
The like results for `CC(=O)NCc1cc2cc(Cl)c(NCc3ccon3)cc2[nH]1` [Compound 227, N-((5-chloro-6-((isoxazol-3-ylmethyl)amino)-1H-indol-2-yl)methyl)acetamide] were, in that order, 317 nM and 486 nM.
In the same order, the values of `CC(=O)NCc1cc2cc(F)c(NCc3ccon3)cc2[nH]1` [Compound 228, N-((5-fluoro-6-((isoxazol-3-ylmethyl)amino)-1H-indol-2-yl)methyl)acetamide] are 3170 nM and 11200 nM.
In the same order, the values of `CC(=O)NCc1cc2cc(Cl)c(NCc3cscn3)cc2[nH]1` [Compound 229, N-((5-chloro-6-((thiazol-4-ylmethyl)amino)-1H-indol-2-yl)methyl)acetamide] are 157 nM and 204 nM.
For the compound `O=C(NCc1cc2cc(F)c(OCc3cscn3)cc2[nH]1)C1(F)CC1` [Compound 230, 1-fluoro-N-((5-fluoro-6-(thiazol-4-ylmethoxy)-1H-indol-2-yl)methyl)cyclopropane-1-carboxamide], the concentration for half-maximal inhibition (IC50) at human SLC6A19 and TMEM27 [1] was 69.6 nM; at human SLC6A19 and TMEM27 [2], 22.9 nM.
The like results for `O=C(NCc1cc2cc(Cl)c(OCc3cscn3)cc2[nH]1)C1(F)CC1` [Compound 231, N-((5-chloro-6-(thiazol-4-ylmethoxy)-1H-indol-2-yl)methyl)-1-fluorocyclopropane-1-carboxamide] were, in that order, 139 nM and 49.3 nM.
The like results for `O=C(NCc1cc2cc(Cl)c(OCc3ccon3)cc2[nH]1)C1(F)CC1` [Compound 232, N-((5-chloro-6-(isoxazol-3-ylmethoxy)-1H-indol-2-yl)methyl)-1-fluorocyclopropane-1-carboxamide] were, in that order, 101 nM and 41.2 nM.
The like results for `O=C(NCc1cc2cc(F)c(OCc3ccon3)cc2[nH]1)C1(F)CC1` [Compound 233, 1-fluoro-N-((5-fluoro-6-(isoxazol-3-ylmethoxy)-1H-indol-2-yl)methyl)cyclopropane-1-carboxamide] were, in that order, 112 nM and 57 nM.
As for `CC(=O)NCc1cc2cc(C)c(OCc3cscn3)cc2[nH]1` [Compound 234, N-((5-methyl-6-(thiazol-4-ylmethoxy)-1H-indol-2-yl)methyl)acetamide], the IC50 stood at 360 nM on human SLC6A19 and TMEM27 [1]; 455 nM on human SLC6A19 and TMEM27 [2].
The like results for `CC(=O)NCc1cc2cc(C)c(OCc3ccon3)cc2[nH]1` [Compound 235, N-((6-(isoxazol-3-ylmethoxy)-5-methyl-1H-indol-2-yl)methyl)acetamide] were, in that order, 283 nM and 521 nM.
In the same order, the values of `CC(=O)NCc1cc2cc(F)c(OCc3coc(C)n3)cc2[nH]1` [Compound 236, N-((5-fluoro-6-((2-methyloxazol-4-yl)methoxy)-1H-indol-2-yl)methyl)acetamide] are 2990 nM and more than 19300 nM.
In the same order, the values of `CC1(C(=O)NCc2cc3cc(Cl)c(OCc4ccc(Cl)s4)cc3[nH]2)CC1` [Compound 320, N-((5-chloro-6-((5-chlorothiophen-2-yl)methoxy)-1H-indol-2-yl)methyl)-1-methylcyclopropane-1-carboxamide] are 1080 nM and 480 nM.
Turning to `CC1(C(=O)NCc2cc3cc(Cl)c(OCc4ccsc4Cl)cc3[nH]2)CC1` [Compound 321, N-((5-chloro-6-((2-chlorothiophen-3-yl)methoxy)-1H-indol-2-yl)methyl)-1-methylcyclopropane-1-carboxamide], the IC50 at human SLC6A19 and TMEM27 [1] was found to be 891 nM; on human SLC6A19 and TMEM27 [2] it was 379 nM.
Take `CC1(C(=O)NCc2cc3cc(Cl)c(OCc4ccns4)cc3[nH]2)CC1` [Compound 322, N-((5-chloro-6-(isothiazol-5-ylmethoxy)-1H-indol-2-yl)methyl)-1-methylcyclopropane-1-carboxamide]: the IC50 was 275 nM on human SLC6A19 and TMEM27 [1]; 138 nM on human SLC6A19 and TMEM27 [2].
The like results for `CC1(C(=O)NCc2cc3cc(Cl)c(OCc4ncc(Cl)s4)cc3[nH]2)CC1` [Compound 323, N-((5-chloro-6-((5-chlorothiazol-2-yl)methoxy)-1H-indol-2-yl)methyl)-1-methylcyclopropane-1-carboxamide] were, in that order, 1810 nM and 531 nM.
In the same order, the values of `CC1(C(=O)NCc2cc3cc(Cl)c(OCc4csc(Cl)c4)cc3[nH]2)CC1` [Compound 324, N-((5-chloro-6-((5-chlorothiophen-3-yl)methoxy)-1H-indol-2-yl)methyl)-1-methylcyclopropane-1-carboxamide] are 1120 nM and 476 nM.
In the same order, the values of `CC1(C(=O)NCc2cc3cc(Cl)c(OCc4ccno4)cc3[nH]2)CC1` [Compound 326, N-((5-chloro-6-(isoxazol-5-ylmethoxy)-1H-indol-2-yl)methyl)-1-methylcyclopropane-1-carboxamide] are 196 nM and 125 nM.
As to `CC1(C(=O)NCc2cc3cc(F)c(OCc4cccc(F)n4)cc3[nH]2)CC1` [Compound 327, N-((5-fluoro-6-((6-fluoropyridin-2-yl)methoxy)-1H-indol-2-yl)methyl)-1-methylcyclopropane-1-carboxamide], the IC50 at human SLC6A19 and TMEM27 [1] was 223 nM; at human SLC6A19 and TMEM27 [2], 89.1 nM.
The like results for `CC1(C(=O)NCc2cc3cc(F)c(OCc4ccccn4)cc3[nH]2)CC1` [Compound 330, N-((5-fluoro-6-(pyridin-2-ylmethoxy)-1H-indol-2-yl)methyl)-1-methylcyclopropane-1-carboxamide] were, in that order, 167 nM and 123 nM.
In the same order, the values of `CC1(C(=O)NCc2cc3cc(F)c(OCc4cccnc4F)cc3[nH]2)CC1` [Compound 332, N-((5-fluoro-6-((2-fluoropyridin-3-yl)methoxy)-1H-indol-2-yl)methyl)-1-methylcyclopropane-1-carboxamide] are 269 nM and 187 nM.
In the same order, the values of `CC1(C(=O)NCc2cc3cc(C4CC4)c(OCc4cscn4)cc3[nH]2)CC1` [Compound 341, N-((5-cyclopropyl-6-(thiazol-4-ylmethoxy)-1H-indol-2-yl)methyl)-1-methylcyclopropane-1-carboxamide] are 273 nM and 194 nM.
Consider `CC1(C(=O)NCc2cc3cc(C4CC4)c(OCc4ccon4)cc3[nH]2)CC1` [Compound 342, N-((5-cyclopropyl-6-(isoxazol-3-ylmethoxy)-1H-indol-2-yl)methyl)-1-methylcyclopropane-1-carboxamide], for which the 50% inhibitory concentration (IC50) on human SLC6A19 and TMEM27 [1] amounted to 258 nM; at human SLC6A19 and TMEM27 [2], 215 nM.
In the same order, the values of `Cc1cc(COc2c(Cl)cc3cc(CNC(=O)C4(C)CC4)[nH]c3c2Cl)no1` [Compound 343, N-((5,7-dichloro-6-((5-methylisoxazol-3-yl)methoxy)-1H-indol-2-yl)methyl)-1-methylcyclopropane-1-carboxamide] are 3160 nM and 2480 nM.
In the same order, the values of `CC1(C(=O)NCc2cc3cc(Cl)c(OCc4cscn4)c(Cl)c3[nH]2)CC1` [Compound 344, N-((5,7-dichloro-6-(thiazol-4-ylmethoxy)-1H-indol-2-yl)methyl)-1-methylcyclopropane-1-carboxamide] are 3910 nM and more than 50000 nM.
The like results for `CC1(C(=O)NCc2cc3cc(Cl)c(OCc4ccon4)c(Cl)c3[nH]2)CC1` [Compound 346, N-((5,7-dichloro-6-(isoxazol-3-ylmethoxy)-1H-indol-2-yl)methyl)-1-methylcyclopropane-1-carboxamide] were, in that order, more than 9540 nM and more than 50000 nM.
In the case of `CC1(C(=O)NCc2cc3cc(Cl)c(OCc4c(F)ccnc4Cl)cc3[nH]2)CC1` [Compound 351, N-((5-chloro-6-((2-chloro-4-fluoropyridin-3-yl)methoxy)-1H-indol-2-yl)methyl)-1-methylcyclopropane-1-carboxamide], the IC50 at human SLC6A19 and TMEM27 [1] came out at 2470 nM; at human SLC6A19 and TMEM27 [2] it was 1540 nM.
